Experimental data reported in ChEMBL document CHEMBL1201862, “PubChem BioAssay data set” (2004).
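Results reflect a 48-hour exposure of cells in 96-well plates to compound at five concentrations. GI50 is the concentration that inhibits growth by half.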 The source made the active and inactive calls. Cut-off read from the data, not from the text of the source: active = GI50 up to about 1.1 µM and inactive = higher.

Columns and labels:
Test in all cases: NCI tumour cell line growth inhibition, 48 h
UACC-257 = test system: UACC-257
OVCAR-4 = test system: OVCAR-4
M14 = test system: M14
RXF 393 = test system: RXF 393
MDA-MB-231 = test system: MDA-MB-231
U-251 = test system: U-251
Hs-578T = test system: Hs-578T
MOLT-4 = test system: MOLT-4
T47D = test system: T47D
DU-145 = test system: DU-145
SK-MEL-5 = test system: SK-MEL-5
KM12 = test system: KM12
HCT-116 = test system: HCT-116
HOP-62 = test system: HOP-62
BT-549 = test system: BT-549
SNB-19 = test system: SNB-19
HL-60 = test system: HL-60
NCI-H460 = test system: NCI-H460
Malme-3M = test system: Malme-3M
HT-29 = test system: HT-29
HOP-92 = test system: HOP-92
RPMI-8226 = test system: RPMI-8226
HCT-15 = test system: HCT-15
NCI/ADR-RES = test system: NCI/ADR-RES
SNB-75 = test system: SNB-75
OVCAR-5 = test system: OVCAR-5
IGROV-1 = test system: IGROV-1
NCI-H522 = test system: NCI-H522
SK-OV-3 = test system: SK-OV-3
SF-295 = test system: SF-295
SF-539 = test system: SF-539
TK-10 = test system: TK-10
A498 = test system: A498
ACHN = test system: ACHN
MDA-N = test system: MDA-N
786-0 = test system: 786-0
UO-31 = test system: UO-31
HCC 2998 = test system: HCC 2998
OVCAR-3 = test system: OVCAR-3
A549 = test system: A549
MCF7 = test system: MCF7
EKVX = test system: EKVX
SN12C = test system: SN12C
SW-620 = test system: SW-620
CAKI-1 = test system: CAKI-1
K562 = test system: K562
NCI-H23 = test system: NCI-H23
SF-268 = test system: SF-268
MDA-MB-435 = test system: MDA-MB-435
NCI-H226 = test system: NCI-H226
OVCAR-8 = test system: OVCAR-8
COLO 205 = test system: COLO 205
CCRF-CEM = test system: CCRF-CEM
PC-3 = test system: PC-3
UACC-62 = test system: UACC-62
SR = test system: SR
SK-MEL-28 = test system: SK-MEL-28
LOX IMVI = test system: LOX IMVI
SK-MEL-2 = test system: SK-MEL-2

CC(=O)O[C@H]1CC[C@@]2(C)C(=CC[C@H]3[C@@H]4C[C@H](N5CCOCC5)[C@H](OC(C)=O)[C@@]4(C)CC[C@@H]32)C1
GI50 (UACC-257): > 100 µM (inactive) | GI50 (OVCAR-4): > 100 µM (inactive) | GI50 (M14): > 100 µM (inactive) | GI50 (RXF 393): 42.4 µM (inactive) | GI50 (MDA-MB-231): > 100 µM (inactive) | GI50 (U-251): > 100 µM (inactive) | GI50 (Hs-578T): > 100 µM (inactive) | GI50 (MOLT-4): > 100 µM (inactive) | GI50 (T47D): > 100 µM (inactive) | GI50 (DU-145): > 100 µM (inactive) | GI50 (SK-MEL-5): > 100 µM (inactive) | GI50 (KM12): > 100 µM (inactive) | GI50 (HCT-116): > 100 µM (inactive) | GI50 (HOP-62): > 100 µM (inactive) | GI50 (BT-549): > 100 µM (inactive) | GI50 (SNB-19): > 100 µM (inactive) | GI50 (HL-60): 54.2 µM (inactive) | GI50 (NCI-H460): > 100 µM (inactive) | GI50 (Malme-3M): > 100 µM (inactive) | GI50 (HT-29): 32.4 µM (inactive) | GI50 (HOP-92): > 100 µM (inactive) | GI50 (RPMI-8226): 92.5 µM (inactive) | GI50 (HCT-15): > 100 µM | GI50 (NCI/ADR-RES): > 100 µM (inactive) | GI50 (SNB-75): 71.6 µM (inactive) | GI50 (OVCAR-5): > 100 µM (inactive) | GI50 (IGROV-1): > 100 µM (inactive) | GI50 (NCI-H522): > 100 µM (inactive) | GI50 (SK-OV-3): > 100 µM (inactive) | GI50 (SF-295): > 100 µM (inactive) | GI50 (SF-539): 78 µM (inactive) | GI50 (TK-10): > 100 µM (inactive) | GI50 (A498): > 100 µM (inactive) | GI50 (ACHN): > 100 µM (inactive) | GI50 (MDA-N): > 100 µM (inactive) | GI50 (786-0): > 100 µM (inactive) | GI50 (UO-31): > 100 µM (inactive) | GI50 (HCC 2998): > 100 µM (inactive) | GI50 (OVCAR-3): > 100 µM (inactive) | GI50 (A549): > 100 µM (inactive) | GI50 (MCF7): > 100 µM (inactive) | GI50 (EKVX): > 100 µM (inactive) | GI50 (SN12C): > 100 µM (inactive) | GI50 (SW-620): > 100 µM (inactive) | GI50 (CAKI-1): > 100 µM (inactive) | GI50 (K562): 25.4 µM (inactive) | GI50 (NCI-H23): > 100 µM (inactive) | GI50 (SF-268): > 100 µM (inactive) | GI50 (MDA-MB-435): > 100 µM (inactive) | GI50 (NCI-H226): > 100 µM (inactive) | GI50 (OVCAR-8): > 100 µM (inactive) | GI50 (COLO 205): > 100 µM (inactive) | GI50 (CCRF-CEM): > 100 µM (inactive) | GI50 (PC-3): > 100 µM (inactive) | GI50 (UACC-62): > 100 µM (inactive) | GI50 (SR): 86.5 µM (inactive) | GI50 (SK-MEL-28): > 100 µM (inactive) | GI50 (LOX IMVI): > 100 µM (inactive) | GI50 (SK-MEL-2): > 100 µM (inactive)

C=CCSSCC=C
GI50 (UACC-257): 32.8 µM (inactive) | GI50 (OVCAR-4): > 76.6 µM (inactive) | GI50 (M14): 31.8 µM (inactive) | GI50 (RXF 393): 32.3 µM (inactive) | GI50 (MDA-MB-231): 16.8 µM (inactive) | GI50 (U-251): 61.4 µM (inactive) | GI50 (Hs-578T): 27.9 µM (inactive) | GI50 (MOLT-4): 1.8 µM (inactive) | GI50 (T47D): > 100 µM (inactive) | GI50 (DU-145): > 100 µM (inactive) | GI50 (SK-MEL-5): 35.4 µM (inactive) | GI50 (KM12): 68.9 µM (inactive) | GI50 (HCT-116): 13.6 µM (inactive) | GI50 (HOP-62): > 71.9 µM (inactive) | GI50 (BT-549): 42.3 µM (inactive) | GI50 (SNB-19): > 100 µM (inactive) | GI50 (HL-60): 3.49 µM (inactive) | GI50 (NCI-H460): 32.4 µM (inactive) | GI50 (Malme-3M): 40.9 µM (inactive) | GI50 (HT-29): 38.4 µM (inactive) | GI50 (HOP-92): 28.5 µM (inactive) | GI50 (RPMI-8226): 4.05 µM (inactive) | GI50 (HCT-15): 38.5 µM | GI50 (NCI/ADR-RES): 28.1 µM (inactive) | GI50 (SNB-75): 60.8 µM (inactive) | GI50 (OVCAR-5): 51.6 µM (inactive) | GI50 (IGROV-1): > 71.6 µM (inactive) | GI50 (NCI-H522): 15.9 µM (inactive) | GI50 (SK-OV-3): 90.4 µM (inactive) | GI50 (SF-295): 55.5 µM (inactive) | GI50 (SF-539): 29.5 µM (inactive) | GI50 (TK-10): > 100 µM (inactive) | GI50 (A498): > 100 µM (inactive) | GI50 (ACHN): > 73.6 µM (inactive) | GI50 (MDA-N): 19.8 µM (inactive) | GI50 (786-0): 22.5 µM (inactive) | GI50 (UO-31): 32.9 µM (inactive) | GI50 (HCC 2998): > 100 µM (inactive) | GI50 (OVCAR-3): 52 µM (inactive) | GI50 (A549): > 83.8 µM (inactive) | GI50 (MCF7): 30.3 µM (inactive) | GI50 (EKVX): > 100 µM (inactive) | GI50 (SN12C): 36.7 µM (inactive) | GI50 (SW-620): 19.1 µM (inactive) | GI50 (CAKI-1): 44.8 µM (inactive) | GI50 (K562): 5.5 µM (inactive) | GI50 (NCI-H23): > 58.3 µM (inactive) | GI50 (SF-268): 47.9 µM (inactive) | GI50 (MDA-MB-435): 32.1 µM (inactive) | GI50 (NCI-H226): 32.1 µM (inactive) | GI50 (OVCAR-8): 27.6 µM (inactive) | GI50 (COLO 205): 41.6 µM (inactive) | GI50 (CCRF-CEM): 1.98 µM (inactive) | GI50 (PC-3): 39.8 µM (inactive) | GI50 (UACC-62): 44.3 µM (inactive) | GI50 (SR): 4.09 µM (inactive) | GI50 (SK-MEL-28): > 74.8 µM (inactive) | GI50 (LOX IMVI): 9.73 µM (inactive) | GI50 (SK-MEL-2): > 71.1 µM (inactive)
